Reference: US11325938B2, “CD73 inhibitors” (ORIC Pharmaceuticals, Inc., priority 2018, dated 2022)
pIC50: −log10 of the molar value.

Molecular target: CD73 (Homo sapiens (Human), UniProt P21589)
Experiment: Biochemical assay: inhibition of CD73 activity (AMP hydrolysis, Malachite Green readout)
Conditions: CD73 0.3208 nM, AMP 15 μM, 25 mM Tris-HCl pH 7.4, RT, absorbance 620 nm
Outline: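 Phosphate from AMP hydrolysis (15 μM AMP, 10 min, RT) was detected by Malachite Green absorbance to give IC50s. Enzyme at 320 pM was first exposed 15 min to compounds, dosed from 100 μM in ½-log steps, in Tris pH 7.4 buffer with MgCl2, Brij-35 and BSA.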

Chain of CD73 (P21589 27-574): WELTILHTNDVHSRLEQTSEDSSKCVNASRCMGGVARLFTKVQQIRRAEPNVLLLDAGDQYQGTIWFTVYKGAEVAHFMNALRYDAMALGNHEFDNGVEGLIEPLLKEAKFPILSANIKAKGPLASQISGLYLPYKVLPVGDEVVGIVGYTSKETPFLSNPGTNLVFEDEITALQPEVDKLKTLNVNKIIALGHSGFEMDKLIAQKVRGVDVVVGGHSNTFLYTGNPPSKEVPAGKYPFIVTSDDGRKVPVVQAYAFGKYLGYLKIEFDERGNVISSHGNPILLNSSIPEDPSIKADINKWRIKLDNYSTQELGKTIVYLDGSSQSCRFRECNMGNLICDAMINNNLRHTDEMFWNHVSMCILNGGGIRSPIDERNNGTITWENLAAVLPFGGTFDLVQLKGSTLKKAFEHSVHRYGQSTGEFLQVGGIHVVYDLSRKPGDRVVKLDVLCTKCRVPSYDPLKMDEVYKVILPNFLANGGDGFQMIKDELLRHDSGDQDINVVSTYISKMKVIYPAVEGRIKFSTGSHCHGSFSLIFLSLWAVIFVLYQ

pIC50 | Structure (SMILES)
≥ 7.00 | CN(c1nc(Cl)nc2c1cnn2[C@@H]1O[C@H](COC(CO)(CO)P(=O)(O)O)[C@@H](O)[C@H]1O)C1CCCC1 (racemic) [Example 211, rac-(2-(((2R,3S,4R,5R)-5-(6-chloro-4-(cyclopentyl(methyl)amino)-1H-pyrazolo[3,4-d]pyrimidin-1-yl)-3,4-dihydroxytetrahydrofuran-2-yl)methoxy)-1,3-dihydroxypropan-2-yl)phosphonic acid]
≥ 7.00 | C[C@H](OC[C@H]1O[C@@H](n2ncc3c(NC4CCCC4)nc(Cl)nc32)[C@H](O)[C@@H]1O)P(=O)(O)O [Example 33, ((R)-1-(((2R,3S,4R,5R)-5-(6-chloro-4-(cyclopentylamino)-1H-pyrazolo[3,4-d]pyrimidin-1-yl)-3,4-dihydroxytetrahydrofuran-2-yl)methoxy)ethyl)phosphonic acid]
≥ 7.00 | CC(C)(O)COc1nc(NC2CCCC2)c2cnn([C@@H]3O[C@H](COC(CO)(CO)P(=O)(O)O)[C@@H](O)[C@H]3O)c2n1 (racemic) [Example 175, rac-(2-(((2R,3S,4R,5R)-5-(4-(cyclopentylamino)-6-(2-hydroxy-2-methylpropoxy)-1H-pyrazolo[3,4-d]pyrimidin-1-yl)-3,4-dihydroxytetrahydrofuran-2-yl)methoxy)-1,3-dihydroxypropan-2-yl)phosphonic acid]
≥ 7.00 | C[C@@](CO)(OC[C@H]1O[C@@H](n2ncc3c(NC4CCC4)nc(Cl)nc32)[C@H](O)[C@@H]1O)P(=O)(O)O [Example 101, ((R)-2-(((2R,3S,4R,5R)-5-(6-chloro-4-(cyclobutylamino)-1H-pyrazolo[3,4-d]pyrimidin-1-yl)-3,4-dihydroxytetrahydrofuran-2-yl)methoxy)-1-hydroxypropan-2-yl)phosphonic acid]
≥ 7.00 | COC[C@@](C)(OC[C@H]1O[C@@H](n2nnc3c(NC4CCCC4)cc(Cl)nc32)[C@H](O)[C@@H]1O)P(=O)(O)O [Example 143, ((S)-2-(((2R,3S,4R,5R)-5-(5-chloro-7-(cyclopentylamino)-3H-[1,2,3]triazolo[4,5-b]pyridin-3-yl)-3,4-dihydroxytetrahydrofuran-2-yl)methoxy)-1-methoxypropan-2-yl)phosphonic acid]
≥ 7.00 | COCCOCC(COCCO)(OC[C@H]1O[C@@H](n2ncc3c(NC4CCCC4)nc(Cl)nc32)[C@H](O)[C@@H]1O)P(=O)(O)O (mixture of isomers) [Example 177, rac-(2-(((2R,3S,4R,5R)-5-(6-chloro-4-(cyclopentylamino)-1H-pyrazolo[3,4-d]pyrimidin-1-yl)-3,4-dihydroxytetrahydrofuran-2-yl)methoxy)-1-(2-hydroxyethoxy)-3-(2-methoxyethoxy)propan-2-yl)phosphonic acid]
≥ 7.00 | C[C@@H](OC[C@H]1O[C@@H](n2ncc3c(NC4CCCC4)nc(Cl)nc32)[C@H](O)[C@@H]1O)P(=O)(O)O [Example 32, ((S)-1-(((2R,3S,4R,5R)-5-(6-chloro-4-(cyclopentylamino)-1H-pyrazolo[3,4-d]pyrimidin-1-yl)-3,4-dihydroxytetrahydrofuran-2-yl)methoxy)ehtyl)phosphonic acid]
≥ 7.00 | CSCC(C)(OC[C@H]1O[C@@H](n2ncc3c(NC4CCCC4)nc(Cl)nc32)[C@H](O)[C@@H]1O)P(=O)(O)O (stereo partly drawn) [Example 55, (2-(((2R,3S,4R,5R)-5-(6-Chloro-4-(cyclopentylamino)-1H-pyrazolo[3,4-d]pyrimidin-1-yl)-3,4-dihydroxytetrahydrofuran-2-yl)methoxy)-1-(methylthio)propan-2-yl)phosphonic acid]
≥ 7.00 | COCC(C)(OC[C@H]1O[C@@H](n2ncc3c(NC4CCC4)nc(Cl)nc32)[C@H](O)[C@@H]1O)P(=O)(O)O (stereo partly drawn) [Example 159, (2-(((2R,3S,4R,5R)-5-(6-chloro-4-(cyclobutylamino)-1H-pyrazolo[3,4-d]pyrimidin-1-yl)-3,4-dihydroxytetrahydrofuran-2-yl)methoxy)-1-methoxypropan-2-yl)phosphonic acid]
